Experimental data taken from PMC4368859 (International Journal of Neuropsychopharmacology, 2014).
“And” between values parts separate entries of the source, which are not always exact repeats. Equal values may be shown once.

Columns and labels:
[1] = test system: [^3H]-cocaine uptake in hCMEC/D3 cells; type: cell-based, human
[2] = test system: cocaine transporter in hCMEC/D3 cells; assay: trans-stimulation of [^3H]-cocaine exit from hCMEC/D3 cells; conditions: 10 µM unlabeled compound in KH buffer after 5 minutes loading; vs control
[3] = ref Gatley et al., 1994; Chow et al., 2001; cited from earlier work
OCTs = assay: MPP+ transport in hCMEC/D3 cells; type: cell-based, human; conditions: TEA 2mM, data not shown
mouse luminal BBB = assay: cocaine brain transport by in situ mouse carotid perfusion; type: in vivo; conditions: for Brain transport (K in): 9nM; for decrease in [^3H]-cocaine transport by unlabeled cocaine: unlabeled cocaine 10mM, mouse BBB
[4] = in water; ref Lu et al., 2007; cited from earlier work
[5] = pKa and ionised/neutral fraction of the drug as a function of pH; type: physicochemical
hCMEC/D3 cells = assay: cocaine uptake in hCMEC/D3 cells; type: in vitro ADME, human
[6] = in vivo, concentrations less than K m

Q: What does the source list for `CN1[C@H]2CC[C@@H]1[C@@H](C(=O)O)[C@@H](OC(=O)c1ccccc1)C2` [Benzoylecgonine]?
A: Relative uptake of [^3H]-cocaine [1]: 104.1±3.0% and 94.2±14.9% and 72.0±11.4 %; trans-stimulation of [^3H]-cocaine exit (trans-efflux zero) [2]: lack of a trans-stimulation effect; brain uptake [3]: no significant brain uptake

Q: Which “Relative uptake of [^3H]-cocaine” value [1] does the source give for `COc1ccc2c3c1O[C@H]1[C@@H](O)C=C[C@H]4[C@@H](C2)N(C)CC[C@@]341` [Codeine] here?
A: Its value is 63.4±5.0 %.

Q: What does the source list for `CCCC(C(=O)c1ccc2c(c1)OCO2)N1CCCC1` (stereo not drawn) [MDPV, 3,4-methylenedioxypyrovalerone]?
A: Relative uptake of [^3H]-cocaine [1]: 18.1±0.4 %; trans-stimulation of [^3H]-cocaine exit (trans-efflux zero) [2]: strongly stimulated

Q: For `C=CCN1CC[C@]23c4c5ccc(O)c4O[C@H]2C(=O)CC[C@@]3(O)[C@H]1C5` [Naloxone], which “Relative uptake of [^3H]-cocaine” value [1] is on record?
A: The value was 28.3±0.9 %.

Q: For `CN1CCC[C@H]1c1cccnc1` [Nicotine], which “trans-stimulation of [^3H]-cocaine exit (trans-efflux zero)” value [2] is on record?
A: The value was “strongly stimulated”.

Q: For `CC[N+](CC)(CC)CC` [TEA, tetraethylammonium], which “Relative uptake of [^3H]-cocaine” value [1] is on record?
A: The value was 120.6±9.8%.

Q: What about the “effect on MPP^+ transport” value (OCTs) of the same compound?
A: Its value is “significantly inhibited”.

Q: Which “Relative uptake of [^3H]-cocaine” value [1] does the source give for `COc1ccc(CCN(C)CCCC(C#N)(c2ccc(OC)c(OC)c2)C(C)C)cc1OC` (stereo not drawn) [Verapamil] here?
A: The value was 3.7±0.2 %.

Q: What does the source list for `COC(=O)[C@H]1[C@@H](OC(=O)c2ccccc2)C[C@@H]2CC[C@H]1N2C` [cocaine, (−)-Cocaine]?
A: Brain transport (K in) (mouse luminal BBB; C57Bl/6 mice, 60 seconds, Krebs-carbonate pH 7.40): 19 ± 2 µL/s/g; Brain transport (K in) (mouse luminal BBB; DBA mice, 60 seconds, Krebs-carbonate pH 7.40): 21 ± 2 µL/s/g; Brain transport (K in) (mouse luminal BBB; Fvb [Oct1,Oct2(−/−)] mice, 60 seconds): 19 ± 2 µL/s/g; Brain transport (K in) (mouse luminal BBB; Fvb wild-type mice, 60 seconds, Krebs-carbonate pH 7.40): 20 ± 2 µL/s/g; Brain transport (K in) (mouse luminal BBB; Swiss mice, 60 seconds, Krebs-carbonate pH 7.40): 20 ± 2 µL/s/g; K passive (passive diffusion) (mouse luminal BBB; Swiss mice, pHe 7.40): 4.5±1.0 µL/sec/g and ~ 4.5 µL/sec/g; apparent K m of carrier-mediated brain flux (mouse luminal BBB; Swiss mice, pHe 7.40): 4500 ± 1800 µM; V max of carrier-mediated brain flux (mouse luminal BBB; Swiss mice, pHe 7.40, per g of brain): 127.2 ± 34.5 nmol/s/g; total brain extraction (mouse luminal BBB; compared with the vascular flow marker diazepam): about 47%; concentration at which passive diffusion and carrier-mediated flux are equal (mouse luminal BBB; from Equation 7): around 24 mM; carrier-mediated influx relative to passive diffusion (mouse luminal BBB; [6]): 3.4 times; carrier-mediated transport rate (mouse luminal BBB; [6]): ~ 15.5 µL/sec/g; increase in brain transport vs pHe 5.40 (mouse luminal BBB; mice, 60 seconds, pHe 6.40): 4.7 fold; increase in brain transport vs pHe 5.40 (mouse luminal BBB; mice, 60 seconds, pHe 7.40): 16.9 fold; reduction in brain transport by NH4Cl pulse (mouse luminal BBB; mice, NH4Cl 30mM, pHe 7.40, 60 seconds): 1.8 fold; decrease in brain transport with HEPES-buffer vs Krebs-carbonate buffer (mouse luminal BBB; mice, carbonate-free HEPES buffer): 1.8 fold; increase in K in with mannitol perfusion buffer vs Krebs-carbonate (mouse luminal BBB; mice, sodium-free and chloride-free buffer): 1.35 fold; effect of lithium (Na+-free) buffer on brain transport (mouse luminal BBB; mice, vs regular Krebs-carbonate buffer): no significant change; net brain transport rate (K in) under unsaturated conditions (mouse luminal BBB; pharmacological concentration range): about 20 µL/sec/g; decrease in [^3H]-cocaine transport by unlabeled cocaine (mouse luminal BBB; pHe 5.40): 1.8 fold; decrease in [^3H]-cocaine transport by unlabeled cocaine (mouse luminal BBB; pHe 6.40): 2.0 fold; decrease in [^3H]-cocaine transport by unlabeled cocaine (mouse luminal BBB; pHe 7.40): 1.9 fold; basic pK a [4]: 8.6; positively charged fraction ([5]; pH 7.4): 94%; uncharged fraction ([5]; pH 7.4): 6%; neutral fraction ([5]; pHe 5.40): 0.06%; cationic form ([5]; pHe 5.40 or 6.40): > 99.4%; neutral fraction ([5]; pHe 6.40): 0.6%; neutral fraction ([5]; pHe 7.40): 5.9%; K m of carrier-mediated uptake (hCMEC/D3 cells; KH buffer pH 7.40, 37°C, 5 minutes, 0.05–10mM): 123 ± 23 µM; increase in uptake after NH4Cl prepulse (acidification) (hCMEC/D3 cells; NH4Cl 30mM prepulse): 1.85 fold; effect of NH4Cl pulse (alkalinization) on uptake (hCMEC/D3 cells; NH4Cl 30mM, pHe 7.40): significantly decreased; K passive (passive diffusion) (hCMEC/D3 cells; pH 7.40): 1.09 ± 0.09 µL/min/mg; increase in uptake vs pHe 5.40 (hCMEC/D3 cells; pHe 6.40): 2.5 fold; increase in uptake vs pHe 5.40 (hCMEC/D3 cells; pHe 7.40): 4.6 fold; transport in NMDG-buffer relative to KH buffer control (hCMEC/D3 cells; sodium replaced, pHe 7.40, 5 minutes, control 100.0±9.0%): 97.0±9.7%

Q: Which “Relative uptake of [^3H]-cocaine” value [1] does the source give for Ecgonine here?
A: The value was 103.9±8.7% and 93.2±2.5% and 75.3±5.0 %.
